Measurements taken from US6921766B1, “Blood vessel lipid deposition-preventive agent comprising chymase-inhibitor” (Daiichi Suntory Pharma Co., Ltd., priority 1999, dated 2005).
Entries after “also recorded” stand apart in the source; their conditions may differ.

What was measured:
Human heart chymase = biological target: T1, Human heart chymase (Homo sapiens, UniProt P23946); assay: Inhibitory activity of test compounds to human chymase (Suc-Ala-Ala-Pro-Phe-MCA substrate); type: biochemical; details: purified human heart chymase, preincubated 10 min at 30° C., pH 7.5
T1 construct: Human heart chymase was purified according to the method of Urata et al; from tissue; host or cells: human heart
T1 sequence (P23946 22-247): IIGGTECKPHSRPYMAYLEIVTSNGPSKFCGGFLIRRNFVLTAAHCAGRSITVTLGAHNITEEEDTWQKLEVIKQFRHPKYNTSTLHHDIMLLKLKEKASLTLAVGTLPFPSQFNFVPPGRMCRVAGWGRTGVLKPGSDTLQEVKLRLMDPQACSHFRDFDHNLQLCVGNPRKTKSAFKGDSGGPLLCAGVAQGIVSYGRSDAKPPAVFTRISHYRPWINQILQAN
Procedure: Human heart chymase was purified according to the method of Urata et al. (J. Biol. Chem. 265: 22348, 1990). The inhibitory activity of the compound of the present invention was determined as follows. Purified enzyme was diluted with 0.1 M Tris-HCl buffer (pH 7.5) containing 1 M sodium chloride and 0.01% Triton X-100 to appropriate concentrations. Suc-Ala-Ala-Pro-Phe-MCA (Peptide Institute Inc.) was dissolved in 10 mM dimethyl sulfoxide (hereinafter referred to as DMSO) and diluted 20-fold with 0.1 M Tris-HCl buffer (pH 7.5) containing 1 M sodium chloride and 0.01% Triton X-100 to an appropriate concentration to prepare substrate solution.
5 μl of the test sample in DMSO was added to 75 μl of the enzyme solution and preincubated at 30° C. for 10 minutes. Then, 20 μl of the substrate solution was added to the test sample-enzyme mixture, and incubated at 30° C. Ten minutes later, 50 μl of 30% acetic acid was added to stop the enzymatic reaction, and the amount of AMC formed was determined using a fluorophotometer. At the same time, 5 μl of DMSO in stead of the test sample was added and reacted simultaneously as a control. The inhibitory activity to human chymase was calculated based on the value of the control, and then the inhibition percentage and the 50% inhibition concentration (IC50) were determined.

[1] = human, pH 7.2
Procedure: 2 μl of 1 mM test sample in DMSO was added to 198 μl of 50% of human plasma solution in a 50 mM sodium phosphate buffer (pH 7.2) and incubated at 30° C. At 0, 5, and 15 minutes, 800 μl of acetonitrile was added to the test sample-plasma mixture, which was mixed and deproteinized. The supernatant obtained by centrifugation (12,000 rpm, one minute) was diluted with the same volume of distilled water, and the intact compound in the solution was determined by HPLC analysis.
The half life (t1/2) of the test sample in the plasma solution was calculated from the recovery at each time point using an exponential regression analysis.

[2] = test system: lipid deposition in the aorta; assay: Aortic lipid deposition model in hamster induced by high-cholesterol diet; type: in vivo, Golden Syrian hamsters; details: 100 mg/kg/day orally for 12 weeks
Procedure: An aorta lipid deposition model was induced by a high-cholesterol diet. A high-cholesterol diet was prepared by adding 0.5% cholesterol and 10% coconut oil (KBT Oriental Co.) to a standard rodent feed containing 5.1% fat and 0.07% cholesterol (KBT oriental Co.). 8-week-old male Golden Syrian hamsters (KBT Oriental Co.) (100-130 g) were given the high-cholesterol diet for 12 weeks to induce lipid deposition in the aorta. A group to which a standard rodent feed was given for 12 weeks was used as the control.
An aortic lipid deposition model was generated as described in Example 3 and used as the high-cholesterol diet group (n=6). A group that received the standard rodent diet for 12 weeks was used as the control group (n=6). […]
The effect on lipid deposition by the chymase no inhibitor was evaluated by harvesting the aorta on week 12 after the start of the high-cholesterol diet and performing a histopathological analysis. […]
Then, the sections were washed with 60% isopropanol and distilled water, and counterstained with hematoxylin for 2 minutes. After washing with 1/4 saturated LiCO3, lipid deposition was evaluated by microscopic observation. Also, the area of the lipid deposition region (the region stained to an orange color with Oil red O) was quantitated on the histological pictures by NIH Image software ver. […]

IC50 (Human heart chymase) | t1/2 (plasma half life) [1] | Compound | lipid deposition area in the aortic cusp region ([2]; FIG. 1, monosodium salt, 100 mg/kg/day) | lipid deposition in the aorta (microscopic examination of the aortic cusp) ([2]; Oil red O staining)
1700 nM | – | O=C(O)C1Oc2ccc(S(=O)(=O)n3c(=O)[nH]c4cc(Cl)ccc4c3=O)cc2NC1=O (racemic) [Compound 29, (±)-6-[(7-chloro-2,4(1H,3H)-quinazolinedione-3-yl)sulfonyl]-3-oxo-1,4-benzoxadine-2-carboxylic acid] | – | –
300 nM | 1.62 h | CC(C(=O)O)C(=O)Nc1cccc(S(=O)(=O)n2c(=O)[nH]c3cc(Cl)ccc3c2=O)c1 (centres unmarked) [Compound 13, 2-{3-[(7-chloro-2,4(1H,3H)-quinazolinedione-3-yl)sulfonyl]phenylaminocarbonyl}propionic acid] | – | –
– | – | Nc1cc(S(=O)(=O)n2c(=O)[nH]c3cc(Cl)ccc3c2=O)ccc1C(=O)[O-].[Na+] [Compound 18, 4-[(7-chloro-2,4(1H,3H)-quinazolinedione-3-yl)sulfonyl]anthranilic acid monosodium salt] | decreased; also recorded: significantly suppressed | completely disappeared
